Assay results: paper PMC9400994, “3,4,5‐Trihydroxypiperidine Based Multivalent Glucocerebrosidase (GCase) Enhancers” (Chembiochem, 2022)

What was measured:
[1] = target: T1, GCase (Homo sapiens, UniProt P04062); assay: Inhibitory activity towards human GCase in leukocyte extracts from healthy donors; type: biochemical; parameters: screened towards GCase from leukocytes isolated from healthy donors (controls); Isolated leukocytes were disrupted by sonication; from tissue; host or cells: pooled human leukocytes from healthy donors, sonicated homogenate; details: for IC50: GCase from leukocytes of healthy donors, 4-methylumbelliferyl-β-D-glucoside 3.33 mM; for rp/n (multivalent effect): relative potency divided by number of binding units n; for rp (relative potency): with respect to monovalent compound 18; for inhibition at 1000 µM: human leukocyte extracts, inhibitor 1 mM, 37 °C, read-out: GCase inhibition (percentage inhibition)
T1 sequence (P04062 40-536): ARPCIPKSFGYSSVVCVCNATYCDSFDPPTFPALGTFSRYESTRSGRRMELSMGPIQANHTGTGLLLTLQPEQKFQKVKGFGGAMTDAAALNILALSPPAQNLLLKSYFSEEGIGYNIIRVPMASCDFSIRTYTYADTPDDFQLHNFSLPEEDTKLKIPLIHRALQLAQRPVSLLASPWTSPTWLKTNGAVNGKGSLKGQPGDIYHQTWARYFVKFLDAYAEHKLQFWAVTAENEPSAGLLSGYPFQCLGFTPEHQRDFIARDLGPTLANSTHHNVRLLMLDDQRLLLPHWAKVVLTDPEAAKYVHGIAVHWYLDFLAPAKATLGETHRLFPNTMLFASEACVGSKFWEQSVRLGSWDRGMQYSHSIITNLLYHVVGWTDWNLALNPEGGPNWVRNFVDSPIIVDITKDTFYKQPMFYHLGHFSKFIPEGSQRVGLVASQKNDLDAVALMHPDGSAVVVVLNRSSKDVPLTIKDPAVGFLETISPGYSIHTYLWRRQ
Experimental: The compounds were screened in extracts from a pool of human leucocytes isolated from healthy donors (1 mM inhibitor concentration, 37 °C and optimal pH conditions, see Experimental Section). […] Isolated leukocytes were disrupted by sonication, and a micro BCA protein assay kit (Sigma‐Aldrich) was used to determine the total protein amount for the enzymatic assay, according to the manufacturer instructions. Enzyme activity was measured in a flat‐bottomed 96‐well plate. […] Percentage GCase inhibition is given with respect to the control (without iminosugar). Data are mean ± SD (n=3).
Data are mean ± SD (n=3). Data obtained were fitted using the Origin Microcal program (see the Supporting Information file for further details). […]
leukocytes isolated from healthy donors (controls). Isolated leukocytes were disrupted by sonication, and a micro BCA protein assay kit (Sigma –Aldrich) was used to determine the total protein amount for the enzymatic assay, according to the manufactu rer instructions. Enzyme activity was measured in a flat - […]
GCase inhibition is given with respect to the control (without iminosugar). Data are mean ± SD (n=3).
The corresponding calculated
IC50 determination: The IC50 values of inhibitors against GCase were determined by measuring the initial […]
Data are mean ± SD (n=3). Data obtained were fitted to the following equation using the Origin Microcal program. where Vi/Vo, represent the ratio between the activity measured in the presence of the inhibitor (Vi) and the activity of the control without the inhibitor (V0), “x” the inhibitor concentration, Max and Min, the maximal and minimal enzymatic activity observed, respectively.

[2] = target: T1, GCase; parameters: method as in earlier work; details: 100 μM; ref 20a; cited from earlier work

IC50 [1] [µM]	rp/n (multivalent effect) [1]	rp (relative potency) [1]	inhibition at 1000 µM [1] [%]	SMILES	Increase of enzyme activity [2] [fold]
9 ± 4	14	56		OC1[C@H](O)CN(CCCCCCCCCn2cc(COCC(COCc3cn(CCCCCCCCCN4C[C@@H](O)C(O)[C@H](O)C4)nn3)(COCc3cn(CCCCCCCCCN4C[C@@H](O)C(O)[C@H](O)C4)nn3)COCc3cn(CCCCCCCCCN4C[C@@H](O)C(O)[C@H](O)C4)nn3)nn2)C[C@H]1O [Compound 13]	
6 ± 2	14	83		OC1[C@H](O)CN(CCCCCCCCCn2cc(COC[C@@H](OCc3cn(CCCCCCCCCN4C[C@@H](O)C(O)[C@H](O)C4)nn3)[C@@H](OCc3cn(CCCCCCCCCN4C[C@@H](O)C(O)[C@H](O)C4)nn3)[C@H](OCc3cn(CCCCCCCCCN4C[C@@H](O)C(O)[C@H](O)C4)nn3)[C@@H](COCc3cn(CCCCCCCCCN4C[C@@H](O)C(O)[C@H](O)C4)nn3)OCc3cn(CCCCCCCCCN4C[C@@H](O)C(O)[C@H](O)C4)nn3)nn2)C[C@H]1O [Compound 14]	
27 ± 3	6	19	100	NC(COCc1cn(CCCCCCCCCN2C[C@@H](O)C(O)[C@H](O)C2)nn1)(COCc1cn(CCCCCCCCCN2C[C@@H](O)C(O)[C@H](O)C2)nn1)COCc1cn(CCCCCCCCCN2C[C@@H](O)C(O)[C@H](O)C2)nn1 [Compound 11]	

The next lines start with the compound.

SMILES	IC50 [1] [µM]	rp/n (multivalent effect) [1]	rp (relative potency) [1]	inhibition at 1000 µM [1] [%]	Increase of enzyme activity [2] [fold]
OCc1cn(CCCCCCCCCN2C[C@@H](O)C(O)[C@H](O)C2)nn1 [Compound 18]	500 ± 50			~70	
O=C(CCCCC(=O)NC(COCc1cn(CCCCCCCCCN2C[C@@H](O)C(O)[C@H](O)C2)nn1)(COCc1cn(CCCCCCCCCN2C[C@@H](O)C(O)[C@H](O)C2)nn1)COCc1cn(CCCCCCCCCN2C[C@@H](O)C(O)[C@H](O)C2)nn1)NC(COCc1cn(CCCCCCCCCN2C[C@@H](O)C(O)[C@H](O)C2)nn1)(COCc1cn(CCCCCCCCCN2C[C@@H](O)C(O)[C@H](O)C2)nn1)COCc1cn(CCCCCCCCCN2C[C@@H](O)C(O)[C@H](O)C2)nn1 [Compound 15]	11 ± 3	8	45		
CCCCCCCCN1CC(O)C(O)C(O)C1 (stereo not shown)					1.25
